Laboratory results reported in the supplement of paper PMC10307832.

Assays:
Experiment in all cases: relative viability (nuclei count vs DMSO), 5 days (fraction); higher = more cells survive
Dinaciclib + Vorinostat = compound: CCc1cnn2c(NCc3ccc[n+]([O-])c3)cc(N3CCCC[C@H]3CCO)nc12 [Dinaciclib] + O=C(CCCCCCC(=O)Nc1ccccc1)NO [Vorinostat] (partner 1 µM)
In short: (§1)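 Relative viability equals treated-well nuclei counts divided by vehicle-well nuclei counts. Counts came from 4× images of lung cancer cell lines grown in 1536-well plates for 5 days after pin-tool dosing on the day after seeding. Dosing used one drug alone or a fixed anchor-drug dose plus five library-drug doses (not always all listed) in √10 steps, and values are medians of duplicate plates.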

Dinaciclib + Foretinib = compound: CCc1cnn2c(NCc3ccc[n+]([O-])c3)cc(N3CCCC[C@H]3CCO)nc12 [Dinaciclib] + COc1cc2c(Oc3ccc(NC(=O)C4(C(=O)Nc5ccc(F)cc5)CC4)cc3F)ccnc2cc1OCCCN1CCOCC1 [Foretinib] (partner 0.25 µM)
In short: as §1

Dinaciclib + Bortezomib = compound: CCc1cnn2c(NCc3ccc[n+]([O-])c3)cc(N3CCCC[C@H]3CCO)nc12 [Dinaciclib] + CC(C)C[C@H](NC(=O)[C@H](Cc1ccccc1)NC(=O)c1cnccn1)B(O)O [Bortezomib] (partner 0.002 µM)
In short: as §1

Dinaciclib + Tozasertib = compound: CCc1cnn2c(NCc3ccc[n+]([O-])c3)cc(N3CCCC[C@H]3CCO)nc12 [Dinaciclib] + Cc1cc(Nc2cc(N3CCN(C)CC3)nc(Sc3ccc(NC(=O)C4CC4)cc3)n2)n[nH]1 [Tozasertib] (partner 0.1 µM)
In short: as §1

Dinaciclib + Luminespib = compound: CCc1cnn2c(NCc3ccc[n+]([O-])c3)cc(N3CCCC[C@H]3CCO)nc12 [Dinaciclib] + CCNC(=O)c1noc(-c2cc(C(C)C)c(O)cc2O)c1-c1ccc(CN2CCOCC2)cc1 [Luminespib] (partner 0.01 µM)
In short: as §1

| Cell Line | relative viability (Dinaciclib + Vorinostat; first compound 0.009487 µM) | relative viability (Dinaciclib + Vorinostat; first compound 0.03 µM) | relative viability (Dinaciclib + Vorinostat; first compound 0.09487 µM) | relative viability (Dinaciclib + Vorinostat; first compound 0.3 µM) | relative viability (Dinaciclib + Foretinib; first compound 0.009487 µM) | relative viability (Dinaciclib + Foretinib; first compound 0.03 µM) | relative viability (Dinaciclib + Foretinib; first compound 0.09487 µM) | relative viability (Dinaciclib + Foretinib; first compound 0.3 µM) | relative viability (Dinaciclib + Bortezomib; first compound 0.009487 µM) | relative viability (Dinaciclib + Bortezomib; first compound 0.03 µM) | relative viability (Dinaciclib + Bortezomib; first compound 0.09487 µM) | relative viability (Dinaciclib + Bortezomib; first compound 0.3 µM) | relative viability (Dinaciclib + Tozasertib; first compound 0.009487 µM) | relative viability (Dinaciclib + Tozasertib; first compound 0.03 µM) | relative viability (Dinaciclib + Tozasertib; first compound 0.09487 µM) | relative viability (Dinaciclib + Tozasertib; first compound 0.3 µM) | relative viability (Dinaciclib + Luminespib; first compound 0.009487 µM) | relative viability (Dinaciclib + Luminespib; first compound 0.03 µM) | relative viability (Dinaciclib + Luminespib; first compound 0.09487 µM) | relative viability (Dinaciclib + Luminespib; first compound 0.3 µM) |
| --- | --- | --- | --- | --- | --- | --- | --- | --- | --- | --- | --- | --- | --- | --- | --- | --- | --- | --- | --- | --- |
| LU99A | 0.332 | 0.119 | 0.0932 | 0.109 | 0.545 | 0.183 | 0.128 | 0.154 | 0.645 | 0.134 | 0.135 | 0.122 | 0.247 | 0.142 | 0.143 | 0.148 | 0.177 | 0.149 | 0.12 | 0.124 |
| LXF-289 | 0.813 | 0.257 | 0.0809 | 0.0855 | 1.03 | 0.706 | 0.0732 | 0.0742 | 1.04 | 0.193 | 0.0851 | 0.0696 | 0.183 | 0.149 | 0.0561 | 0.0572 | 0.642 | 0.106 | 0.068 | 0.0731 |
| NCI-H23 | 0.512 | 0.143 | 0.104 | 0.122 | 0.57 | 0.187 | 0.108 | 0.15 | 0.637 | 0.185 | 0.0983 | 0.106 | 0.246 | 0.131 | 0.116 | 0.13 | 0.197 | 0.172 | 0.168 | 0.148 |
| NCI-H322M | 0.898 | 0.396 | 0.347 | 0.399 | 0.801 | 0.287 | 0.302 | 0.281 | 1.26 | 1.26 | 0.52 | 0.187 | 0.417 | 0.263 | 0.303 | 0.259 | 0.431 | 0.243 | 0.265 | 0.229 |
| NCI-H441 | 1.07 | 0.34 | 0.174 | 0.131 | 0.789 | 0.204 | 0.174 | 0.222 | 0.45 | 0.158 | 0.2 | 0.143 | 0.603 | 0.223 | 0.23 | 0.175 | 0.262 | 0.18 | 0.177 | 0.193 |
| NCI-H460 | 0.57 | 0.0214 | 0.0191 | 0.0236 | 0.803 | 0.0417 | 0.0257 | 0.0233 | 0.591 | 0.013 | 0.0102 | 0.0119 | 0.489 | 0.0458 | 0.015 | 0.0209 | 0.031 | 0.015 | 0.0141 | 0.0129 |
| NCI-H520 | 0.531 | 0.153 | 0.15 | 0.138 | 0.573 | 0.126 | 0.136 | 0.151 | 0.23 | 0.105 | 0.103 | 0.14 | 0.473 | 0.201 | 0.181 | 0.208 | 0.239 | 0.231 | 0.222 | 0.217 |
| NCI-H596 | 0.629 | 0.613 | 0.252 | 0.158 | 0.861 | 0.547 | 0.176 | 0.178 | 1.22 | 0.563 | 0.263 | 0.239 | 0.853 | 0.456 | 0.176 | 0.164 | 0.564 | 0.566 | 0.174 | 0.186 |
| NCI-H647 | 0.494 | 0.079 | 0.0693 | 0.0788 | 0.687 | 0.221 | 0.0703 | 0.0856 | 0.208 | 0.0668 | 0.0726 | 0.0623 | 0.21 | 0.0983 | 0.0486 | 0.0487 | 0.133 | 0.0786 | 0.049 | 0.0752 |
| NCI-H650 | 0.336 | 0.146 | 0.129 | 0.157 | 1.02 | 0.182 | 0.165 | 0.142 | 0.295 | 0.132 | 0.129 | 0.123 | 0.493 | 0.183 | 0.154 | 0.153 | 0.54 | 0.185 | 0.112 | 0.0731 |
| NCI-H661 | 0.804 | 0.235 | 0.211 | 0.211 | 0.851 | 0.213 | 0.202 | 0.199 | 0.774 | 0.155 | 0.167 | 0.186 | 0.339 | 0.183 | 0.199 | 0.18 | 0.906 | 0.195 | 0.169 | 0.148 |
| NCI-H727 | 1.33 | 1.15 | 0.362 | 0.312 | 1.05 | 0.283 | 0.259 | 0.249 | 0.869 | 0.231 | 0.217 | 0.238 | 0.538 | 0.287 | 0.276 | 0.282 | 0.404 | 0.253 | 0.301 | 0.282 |
| NCI-H838 | 0.496 | 0.146 | 0.145 | 0.15 | 0.993 | 0.487 | 0.125 | 0.101 | 0.231 | 0.104 | 0.0725 | 0.127 | 0.292 | 0.164 | 0.0965 | 0.0959 | 0.295 | 0.134 | 0.104 | 0.0905 |
| NCI-H1355 | 0.634 | 0.507 | 0.262 | 0.136 | 1.12 | 0.268 | 0.148 | 0.166 | 1.16 | 1.1 | 0.223 | 0.152 | 0.677 | 0.292 | 0.161 | 0.181 | 0.703 | 0.246 | 0.135 | 0.195 |
| NCI-H1437 | 0.87 | 0.183 | 0.181 | 0.177 | 1.06 | 0.564 | 0.184 | 0.15 | 0.376 | 0.205 | 0.0732 | 0.0751 | 0.356 | 0.165 | 0.141 | 0.131 | 1.1 | 0.354 | 0.152 | 0.136 |
